From patent US10092622B2 (M[…] University Research and Technology Corporation, priority 2009, dated 2018)
“Also recorded” adds a separate entry of the source. Read-outs that look alike come from different tables or passages of the source. Numbered stars: 1 amine (or outer) side, 2 acyl side, 3 side chain; on linkers, the order of the positions; unused ones are H or OH. Bridge positions count the residues as written; N and C are the ends. Square brackets hold non-standard residues; d marks the D form. Peptide text beside a SMILES is read from it. * marks the point of attachment. hTyr(3S-OH,4S-OH,3'-OSO3H) = N[C@H](C(=O)O)[C@H](O)[C@@H](O)c1ccc(O)c(OS(=O)(=O)O)c1; Orn(4R-OH,5R-OH) = O=C([C@H](C[C@@H](O)[C@@H](O)N[*:3])N[*:1])[*:2]; Pro(3S-OH,4S-Me) = C[C@H]1CN[C@H](C(=O)O)[C@H]1O; X1 = CCCCCOc1ccc(-c2cc(-c3ccc(C(=O)*)cc3)no2)cc1; Gln(3R-OH) = NC(=O)C[C@@H](O)[C@H](N)C(=O)O; Hyp = O=C(O)[C@@H]1C[C@@H](O)CN1

Assays:
A. fumigatus = conditions: cited from earlier work
Geotrichum candidum [1] = experiment: Light microscopy of arthrospores; assay type: cell-based; conditions: G. candidum; 4 μg/mL for 48 hours; versus untreated
Procedure: (§1) Microscopy. […] For each of the fungi, the hyphae or arthrospores with an observed MIC50 at 48 hours growing next to the MIC well were used for preparation of light microscopy and transmission electron microscopy (TEM) slides. For light microscopy, lactophenol cotton blue solution (Sigma) was used as a positive stain and mounting medium for the slide. For TEM, the G. candidum samples were fixed at 4° C. with 2.5% glutaraldehyde in 0.1 M phosphate buffer (pH 7.2). After being rinsed with the buffer, specimens were post-fixed with 2% osmium tetroxide in the phosphate buffer. The specimens washed with the phosphate butler were dehydrated in graded ethanol serials (50-100%), and then embedded in Spurr's resin. Thin sections generated with a Reichert-Jung Ultracut E Ultramicrotome (60-90 nm) were double stained with uranyl acetate and lead citrate as described previously. The grids were observed under a transmission electron microscope Jeol JEM-100CX11 (Joel Ltd., Tokyo, Japan). Images were taken at magnifications between 5,000 and 8,000.

Penicillium sp. = experiment: Antifungal susceptibility testing, agar micro-dilution; assay type: cell-based; conditions: 48 hours
Text: (§2) Microbial organisms. Fungal strains were obtained from collections at Mississippi State University's Veterinary Medical Research and Diagnostic Laboratory System and Entomology and Plant Pathology Department or were purchased from the American Type Culture Collection (Manassas, Va.). Fungal isolates used in this study were Alternaria alternata, Aspergillus fumigatus, Aspergillus niger; Fusarium oxysporum f. sp. lycopersici ATCC9848, Geotrichum candidum F-260, Macrophomina phaseolina 61, Microsporum gypseum, Penicillium sp., Rhizoctonia solani MSCOT-I, and Trichophyton mentagrophytes. In addition, two Pythium species were tested: Pythium spinosum 472-04 and Pythium ultimum 671-04.
(§3) Antifungal susceptibility testing. Minimum inhibitory concentrations were determined by agar micro-dilution testing. […] One (1) mL of Sabouraud dextrose agar Difco™ (BD Diagnostics, Franklin Lakes, N.J.) was added to each well. Once the agar solidified, the plates were stored inverted at 4° C. until used. Fungal cultures were grown on 100×15 mm Sabouraud dextrose agar plates (Thermo Fisher Scientific Remel Products, Lenexa, Kans.) at 22° C. for 7 days. A circular punch, containing a 1 cm in diameter plug of the fungi from the agar plate, was made from an area of the plate having a confluent growth of the fungi. The plug was place in 3 mL of PBS and ground with approximately 30 strokes of a Ten-brock homogenizer. Five (5) μL of the supernatant was placed in the center of each well and allowed to dry before incubating the microtiter plates at 22° C. Minimum inhibitory concentrations were measured at 48 hours for each species, except for Trichophyton mentagrophytes, which was measured at 72 hours. MICS were determined as the lowest concentration that inhibited visible fungal growth.

Alternaria alternata = experiment: as above; assay type: cell-based; conditions: 48 hours
Text: as §2, §3

[2] = tested on: Macrophomina phaseolina 61; experiment: as above; assay type: cell-based; conditions: 48 hours
Text: as §2, §3

[3] = tested on: Fusarium oxysporum f. sp. lycopersici ATCC9848; experiment: as above; assay type: cell-based; conditions: 48 hours
Text: as §2, §3

Pythium spinosum 472-04 = experiment: as above; assay type: cell-based; conditions: P. spinosum; 48 hours
Text: as §2, §3

[4] = tested on: Geotrichum candidum F-260; experiment: as above; assay type: cell-based; conditions: G. candidum; 48 hours
Text: as §2, §3

Microsporum gypseum = experiment: as above; assay type: cell-based; conditions: 48 hours
Text: as §2, §3

[5] = tested on: Rhizoctonia solani MSCOT-I; experiment: as above; assay type: cell-based; conditions: R. solani
Text: as §2, §3

[6] = tested on: Trichophyton mentagrophytes; experiment: as above; assay type: cell-based; conditions: 72 hours
Text: as §2, §3

Pythium ultimum 671-04 = experiment: as above; assay type: cell-based; conditions: P. ultimum; 48 hours
Text: as §2, §3

Aspergillus fumigatus = experiment: as above; assay type: cell-based; conditions: A. fumigatus; 48 hours
Text: as §2, §3

Aspergillus niger = experiment: as above; assay type: cell-based; conditions: A. niger; 48 hours
Text: as §2, §3

Geotrichum candidum [7] = experiment: Transmission electron microscopy of arthrospores; assay type: cell-based; conditions: G. candidum; subinhibitory 4 μg/mL for 48 hours; TEM; versus untreated
Procedure: as §1

Rhizoctonia solani = experiment: Light microscopy of hyphae grown at sub-inhibitory concentration; assay type: cell-based; conditions: R. solani; subinhibitory concentration 0.5 μg/mL; versus control
Procedure: as §1

Compound | hyphal morphology (A. fumigatus; inhibitory concentrations) | hyphal morphology (A. fumigatus; sub-inhibitory concentrations) | arthrospore/cell morphology (Geotrichum candidum [1]) | MIC (Penicillium sp.) [µg/mL] | MIC (Alternaria alternata) [µg/mL] | MIC [2] [µg/mL] | MIC [3] [µg/mL] | concentration with significant growth inhibition [3] [µg/mL] | MIC (Pythium spinosum 472-04) [µg/mL] | MIC [4] [µg/mL] | concentration with remarkable growth inhibition (MIC50) [4] [µg/mL] | MIC (Microsporum gypseum) [µg/mL] | reduction in growth ([5]; 0.5 μg/mL occidiofungin) [%] | concentration with significant growth inhibition (MIC50, >50% growth inhibition) ([5]; 48 hours) [µg/mL] | MIC [6] [µg/mL] | MIC (Pythium ultimum 671-04) [µg/mL] | MIC (Aspergillus fumigatus) [µg/mL] | MIC (Aspergillus niger) [µg/mL] | cell wall thickness (Geotrichum candidum [7]) | hyphal morphology (Rhizoctonia solani)
CCCCCOc1ccc(-c2cc(-c3ccc(C(=O)N[C@H]4C[C@@H](O)[C@@H](O)NC(=O)[C@@H]5[C@@H](O)[C@@H](C)CN5C(=O)[C@H]([C@H](O)CC(N)=O)NC(=O)[C@H]([C@H](O)[C@@H](O)c5ccc(O)c(OS(=O)(=O)O)c5)NC(=O)[C@@H]5C[C@@H](O)CN5C(=O)[C@H]([C@@H](C)O)NC4=O)cc3)no2)cc1 [micafungin] (X1-[Orn(4R-OH,5R-OH)]T[Hyp][hTyr(3S-OH,4S-OH,3'-OSO3H)][Gln(3R-OH)][Pro(3S-OH,4S-Me)]; lactam 1-C) | hyphal burst | undulated membranes and deformed hyphae tips |  |  |  |  |  |  |  |  |  |  |  |  |  |  |  |  |  | 
occidiofungin |  |  | significant swelling of the cells; also recorded: amorphous shapes due to cellular swelling | 32 | 8 | 2 | > 32 | 16 | 1 | 8 | 4 | 4 | > 50 | 0.5 | 4 | 2 | 8 | 4 | drastically reduced; also recorded: dramatic decrease in cell wall thickness | significant hyphal morphological changes
